Measurements as given in patent US20080207624A1, “Therapeutic Agent for Bh4-Responsive Hyperphenylalaninemia” (priority 2004, published 2008).
Structures can show the parent of a compound that is named as a salt.

Legend:
[1] = Example 2: stability of sapropterin hydrochloride mixed 1:5 with sweeteners, uncapped vial 40° C., 75% RH; assay type: physicochemical; conditions: 8 weeks
Protocol: Sapropterin hydrochloride was mixed at a 1:5 ratio with each of the three sweeteners described above. 2 g of the mixture was placed in a glass vial and the vial was left uncapped at 40° C., 75% RH, to evaluate the stability of the preparation and sapropterin hydrochloride. […] The preparations using sucrose and fructose even underwent deliquescence. The remaining sapropterin hydrochloride was quantified by liquid chromatography that can differentiate sapropterin hydrochloride from its analogues. The area of the peak for sapropterin hydrochloride was determined and was used to calculate the remaining sapropterin hydrochloride (The same procedure was followed in other examples).

[2] = Example 7: stability of sapropterin hydrochloride blended 200:1 with coloring agents; assay type: physicochemical
Protocol: Sapropterin hydrochloride was mixed at a 200:1 ratio with different coloring agents. 0.2 g of each mixture was placed in a glass vial, which was then sealed with a metal cap and was stored at 40° C. and 75% RH for 4 weeks. Subsequently, the mixtures were evaluated for stability (i.e., change in appearance, amount of remaining active ingredient).

% amount of remaining sapropterin hydrochloride after storage [1]: 98.7%
Appearance after storage [1]: Yellowish white
% amount remained ([2]; After 4-week storage (40° C./75% RH), sealed vial): 99.6%
Initial appearance ([2]; before storage): White
Structure (SMILES): C[C@H](O)[C@H](O)[C@H]1CNc2nc(N)[nH]c(=O)c2N1 [None, sapropterin hydrochloride]
